Test results from patent US20220162191A1, “SMALL MOLECULE MODULATORS OF IL-17” (LEO PHARMA A/S, priority 2019, published 2022).
pEC50: −log10 of the molar value.

These compounds were tested against T1, human IL-17AA (Homo sapiens, UniProt Q16552) (assay: IL-8 release assay in human epithelial keratinocytes adult (HEKa)). Conditions: 3 ng/ml human IL-17AA + 10 ng/ml human TNFalpha, 68-72 h, IL-8 by HTRF, read-out: Rel EC50 L-8 release assay.
T1 construct: host or cells: HEK (human embryonic kidney) cells
T1 sequence (Q16552 24-155) 1: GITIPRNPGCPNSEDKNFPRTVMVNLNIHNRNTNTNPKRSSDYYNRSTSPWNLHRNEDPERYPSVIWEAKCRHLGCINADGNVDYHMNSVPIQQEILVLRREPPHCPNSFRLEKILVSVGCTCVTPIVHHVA
T1 sequence (Q16552 24-155) 2: T1 sequence (Q16552 24-155) 1
Type: cell-based
Description: Example: IL-8 release assay in human epithelial keratinocytes adult (HEKa) Keratinocytes were seeded at 3500 cells/well in 384-well ViewPlates (Perkin Elmer) in Epilife medium (Thermo Fisher) containing human keratinocyte growth supplement (HKGS) without hydrocortisone and incubated in a humid incubator at 37° C., 5% CO2, overnight. The following day growth medium was removed and 25 μl fresh Epilife 10 medium added. 75 nl test compound in 100% DMSO was added into each well reserved
for test compounds, by the use of acoustic pipetting. The remaining wells received an equal volume of DMSO only, as vehicle control, or terfenadine in DMSO, as a positive control for any cytotoxic compounds. Subsequently, another 25 μl Epilife medium was added to each well. Finally, wells containing test compounds and wells prepared to yield 15 maximum stimulation received 25 μl of 9 ng/ml recombinant, human embryonic kidney cell (HEK)-derived human IL-17AA+30 ng/ml human TNF-alpha, in Epilife medium. Wells prepared to define 100% inhibition of IL-17 effects received 25 μl of 30 ng/ml human TNF-alpha alone, in Epilife medium. Final concentrations were 3 ng/ml HEKhuman IL-17AA+10 ng/ml human TNFalpha (maximum stimulation) and 10 ng/ml 20 human TNFalpha alone (100% inhibition, Emax), respectively. Cells were incubated for 68-72 h in the incubator. IL-8 released from the cells was measured by the use of a commercial homogenous time-resolved fluorescence (HTRF) assay (CisBio). 2 μl cell culture supernatant was transferred to a 384-well Proxiplate. 5 μl HTRF reagent was added and the plates incubated sealed in the dark for 3-22 h at room temperature. Time resolved fluorescence was read at 665 vs 620 nm, with excitation at 320 nm, and IL-8 levels calculated as percent of controls. Reduction of the amount of secreted IL-8 indicates decreased IL-17 signaling. Concentration response curves were fitted by the use of a four-parameter logistic equation. Relative IC50 and Emax were reported from 5 curves showing acceptable fit (r2>0.9). Cytotoxicity was measured in the cell-containing
Compounds of the present invention were tested in the IL-8 release assay in human epithelial keratinocytes.

SMILES | pEC50
CC(C)n1cc(-c2cccc(C(c3ccccc3)C(NC(=O)c3ccnn3C)C(=O)Nc3ccc(-c4cncn4C)cc3)c2)ccc1=O (single isomer, unassigned) [Example 230, N-[1-[[3-(1-isopropyl-6-oxo-3-pyridyl)phenyl]-phenyl-methyl]-2-[4-(3-methylimidazol-4-yl)anilino]-2-oxo-ethyl]-2-methyl-pyrazole-3-carboxamide] | 6.00 to 7.00
CC(C)n1cc(-c2cccc(C(c3ccccc3)C(NC(=O)OC3CC3)C(=O)Nc3ccc(-c4cncn4C)cc3)c2)ccc1=O (single isomer, unassigned) [Example 231, Cyclopropyl N-[1-[[3-(1-isopropyl-6-oxo-3-pyridyl)phenyl]-phenyl-methyl]-2-[4-(3-methylimidazol-4-yl)anilino]-2-oxo-ethyl]carbamate] | 6.00 to 7.00
Cc1n[nH]cc1-c1ccc(NC(=O)C(NC(=O)OC2CC2)C(c2ccccc2)c2cccc(-c3ccc(=O)n(C(C)C)c3)c2)cc1 (single isomer, unassigned; diastereomer 1) [Example 242, cyclopropyl N-[1-[[3-(1-isopropyl-6-oxo-3-pyridyl)phenyl]-phenyl-methyl]-2-[4-(3-methyl-1H-pyrazol-4-yl)anilino]-2-oxo-ethyl]carbamate (Diastereomer 1)] | < 6.00
CC(C)n1cc(-c2cccc(C(c3ccccc3)C(NC(=O)c3ccnn3C)C(=O)Nc3ccc(-c4cncn4C)cc3)c2)ccc1=O (single isomer, unassigned; diastereomer 2) [Example 232, N-[1-[[3-(1-isopropyl-6-oxo-3-pyridyl)phenyl]-phenyl-methyl]-2-[4-(3-methylimidazol-4-yl)anilino]-2-oxo-ethyl]-2-methyl-pyrazole-3-carboxamide (Diastereomer 2)] | < 6.00
CC(C)n1cc(-c2cccc(C(c3ccccc3)C(NC(=O)OC3CC3)C(=O)Nc3ccc(-c4cncn4C)cc3)c2)ccc1=O (single isomer, unassigned; diastereomer 2) [Example 239, cyclopropyl N-[1-[[3-(1-isopropyl-6-oxo-3-pyridyl)phenyl]-phenyl-methyl]-2-[4-(3-methylimidazol-4-yl)anilino]-2-oxo-ethyl]carbamate (Diastereomer 2)] | 6.00 to 7.00
Cc1n[nH]cc1-c1ccc(NC(=O)C(NC(=O)OC2CC2)C(c2ccccc2)c2cccc(-c3ccc(=O)n(C(C)C)c3)c2)cc1 (single isomer, unassigned; diastereomer 2) [Example 243, cyclopropyl N-[1-[[3-(1-isopropyl-6-oxo-3-pyridyl)phenyl]-phenyl-methyl]-2-[4-(3-methyl-1H-pyrazol-4-yl)anilino]-2-oxo-ethyl]carbamate (Diastereomer 2)] | 6.00 to 7.00

The remaining lines, values ahead:

pEC50 | SMILES
> 7.00 | Cc1n[nH]cc1-c1ccc(NC(=O)C(NC(=O)c2ccnn2C)C(c2ccccc2)c2cccc(-c3ccc(=O)n(C(C)C)c3)c2)cc1 (single isomer, unassigned; diastereomer 1) [Example 235, N-[1-[[3-(1-isopropyl-6-oxo-3-pyridyl)phenyl]-phenyl-methyl]-2-[4-(3-methyl-1H-pyrazol-4-yl)anilino]-2-oxo-ethyl]-2-methyl-pyrazole-3-carboxamide (Diastereomer 1)]
> 7.00 | Cc1n[nH]cc1-c1ccc(NC(=O)C(NC(=O)c2ccnn2C)C(c2ccccc2)c2cccc(-c3ccc(=O)n(C(C)C)c3)c2)cc1 (single isomer, unassigned; diastereomer 2) [Example 236, N-[1-[[3-(1-isopropyl-6-oxo-3-pyridyl)phenyl]-phenyl-methyl]-2-[4-(3-methyl-1H-pyrazol-4-yl)anilino]-2-oxo-ethyl]-2-methyl-pyrazole-3-carboxamide (Diastereomer 2)]
